Experimental data reported in US10562912B2 (C&C Research Laboratories, priority 2013, dated 2020).

What was measured:
Format in all cases: cell-based
STAT3 = biological target: T1, STAT3 (Homo sapiens, UniProt P40763); experiment: STAT3 reporter gene assay (luciferase), LNCaP stable cell line (pSTAT3-TA-luc), IL-6 stimulation
T1 construct: plasmid pSTAT3-TA-luc), which contains a stably operating STAT3 promoter; endogenous in cells
How it was run: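 LNCaP cells stably carrying pSTAT3-TA-luc, in RPMI1640 with 3% DCC-FBS, were treated with compound and then stimulated with 10 ng/mL IL-6 for 24–48 h at 37 °C. Luciferase activity was measured in lysates. A parallel plate measured viability by CellTiter-Glo, with stimulated 0.1% DMSO wells as the positive control.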

LNCaP = experiment: Cell growth inhibition assay, prostate cancer cell line LNCaP (medium with 10 ng/mL IL-6); details: Homo sapiens, medium supplemented with 10 ng/mL of IL-6, 10,000 cells/well
HEL92.1.7 = experiment: Cell growth inhibition assay, blood cancer cell line HEL92.1.7; details: Homo sapiens, HEL 92.1.7, HEL92.1.7 blood cancer cell line
Description: The inhibitory effects of the compounds of the present invention against the growth of cancer cells were evaluated as shown below. The cancer cell lines including stomach cancer cell line (AGS), breast cancer cell lines (MDA-MB-231, MDA-MB-468, and BT-549), prostate cancer cell lines (LNCaP and DU-145), colon cancer cell line (HCT116), ovarian cancer cell line (SW626), liver cancer cell line (Hep3B), kidney cancer cell line (ACHN), lung cancer cell line (NCI-H23) and blood cancer cell lines (HEL92.1.7 and U266) were cultured under the protocol provided by each supplier. A medium supplemented with 10 ng/mL of IL-6 was used for LNCaP, a prostate cancer cell line, when treated with a drug. Each type of cells to be used in experiments were sub-cultured in a 96-well plate by counting the exact number of cells using Tali™ Image-based Cytometer (Life Technologies). In a 96-well plate, AGS, HCT116, and DU-145 were employed with 3,000 cells/well; NCI-H23, SW626, Hep3B, ACHN, BT-549, MDA-MB-231, HEL92.1.7, and U266 were employed with 5,000 cells/well; and LNCaP and MDA-MB-468 were employed with 10,000 cells/well. The cells were treated with the compounds listed in Examples which were diluted in various concentrations. Upon completion of the compounds treatment, AGS, HCT116, SW626, DU145, NCI-H23, Hep3B, ACHN, BT-549, LNCaP, HEL92.1.7, and U266 cells were cultured at 37° C. under 5% CO2 for from 72 to 96 hours, and MDA-MB-231 and MDA-MB-468 cells were cultured at 37° C. in air for from 72 to 96 hours. Subsequently, the cells were observed under microscope and drug precipitation and particular findings were investigated and recorded. And then, the 96-well plate was placed at room temperature for 30 minutes, added with 20 μL/well of CellTiter-Glo solution (Cat No. G7573, Promega) and shaken for 10 minutes, followed by being subjected to the measurement using PHERAstar™ microplate reader (BMG LABTECH) according to the supplier's general luminometer protocol. Wells where only culture liquid added without cell plating were used as a negative control, whereas wells where culture liquid containing 0.1% DMSO instead of the compounds listed in Examples were used as a positive control.

DU-145 = experiment: Cell growth inhibition assay, prostate cancer cell line DU-145; details: Homo sapiens, DU-145 prostate cancer cell line
How it was run: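 Viability by CellTiter-Glo luminescence after 72–96 h of compound dosing at 37° C. under 5% CO2; DU-145 and HCT116 seeded at 3,000 cells/well, SW626 at 5,000 cells/well.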

T1 sequence (P40763 whole entry): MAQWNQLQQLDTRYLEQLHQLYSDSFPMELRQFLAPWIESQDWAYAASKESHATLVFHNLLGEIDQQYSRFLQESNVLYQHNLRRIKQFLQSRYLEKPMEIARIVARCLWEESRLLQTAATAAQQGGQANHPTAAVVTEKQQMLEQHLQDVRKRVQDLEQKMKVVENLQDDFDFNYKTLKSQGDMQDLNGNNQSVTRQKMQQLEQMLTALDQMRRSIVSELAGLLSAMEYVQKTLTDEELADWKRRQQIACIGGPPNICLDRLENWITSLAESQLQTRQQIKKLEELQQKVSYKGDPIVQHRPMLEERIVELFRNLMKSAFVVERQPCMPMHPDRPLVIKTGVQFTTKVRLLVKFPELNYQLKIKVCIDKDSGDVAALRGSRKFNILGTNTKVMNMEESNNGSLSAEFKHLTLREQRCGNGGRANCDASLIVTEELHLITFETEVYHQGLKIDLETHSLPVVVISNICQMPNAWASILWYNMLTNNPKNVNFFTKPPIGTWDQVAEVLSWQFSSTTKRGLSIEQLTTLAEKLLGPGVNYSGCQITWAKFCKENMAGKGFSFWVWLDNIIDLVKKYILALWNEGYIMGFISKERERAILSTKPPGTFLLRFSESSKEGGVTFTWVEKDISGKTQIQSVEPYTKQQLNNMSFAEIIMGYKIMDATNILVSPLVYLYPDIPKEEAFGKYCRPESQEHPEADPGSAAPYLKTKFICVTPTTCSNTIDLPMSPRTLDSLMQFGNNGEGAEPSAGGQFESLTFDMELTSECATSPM

SMILES | IC50 (STAT3) [µM] | IC50 (LNCaP) [µM] | IC50 (HEL92.1.7) [µM] | IC50 (DU-145) [µM]
CC(C)(c1ccccc1)c1cc(Cl)cc(NC(=O)c2cc3cc(NS(C)(=O)=O)ccc3s2)c1 [Example 64, N-(3-chloro-5-(2-phenylpropan-2-yl)phenyl)-5-(methylsulfonamido)benzo[b]thiophene-2-carboxamide] | 0.065 | 0.1 | 0.11 | 0.043
CC(C)Oc1cc(OC(F)(F)F)cc(C(C)(C)c2cc(Cl)cc(NC(=O)c3cc4c(N5CCOCC5)c(NS(C)(=O)=O)ccc4s3)c2)c1 [Example 66, N-(3-chloro-5-(2-(3-isopropoxy-5-(trifluoromethoxy)phenyl)propan-2-yl)phenyl)-5-(methylsulfonamido)-4-morpholinobenzo[b]thiophene-2-carboxamide] | > 10 | > 1.1 | > 1.1 | > 1.1
COc1cc(F)cc(C(C)(C)c2cc(Cl)cc(NC(=O)c3cc4cc(NS(C)(=O)=O)ccc4s3)c2)c1 [Example 67, N-(3-chloro-5-(2-(3-fluoro-5-methoxyphenyl)propan-2-yl)phenyl)-5-(methylsulfonamido)benzo[b]thiophene-2-carboxamide] | 0.067 | 0.037 | 0.11 | 0.042
CC(C)Oc1cc(OC(F)(F)F)cc(C(C)(C)c2cc(Cl)cc(NC(=O)c3nc4cc(NS(C)(=O)=O)ccc4s3)c2)c1 [Example 81, N-(3-chloro-5-(2-(3-isopropoxy-5-(trifluoromethoxy)phenyl)propan-2-yl)phenyl)-5-(methylsulfonamido)benzo[d]thiazole-2-carboxamide] | 0.055 | 0.15 | 0.34 | 0.11
CC(C)(c1cc(Cl)cc(NC(=O)c2cc3cc(NS(C)(=O)=O)ccc3s2)c1)c1cc(OCC(F)F)cc(OC(F)(F)F)c1 [Example 83, N-(3-chloro-5-(2-(3-(2,2-difluoroethoxy)-5-(trifluoromethoxy)phenyl)propan-2-yl)phenyl)-5-(methylsulfonamido)benzo[b]thiophene-2-carboxamide] | 0.023 | 0.025 | 0.1 | 0.012
CC(C)Oc1cc(OC(F)(F)F)cc(C(C)(C)c2cc(Cl)cc(NC(=O)c3cc4cc(NS(C)(=O)=O)c(F)cc4s3)c2)c1 [Example 84, N-(3-chloro-5-(2-(3-isopropoxy-5-(trifluoromethoxy)phenyl)propan-2-yl)phenyl)-6-fluoro-5-(methylsulfonamido)benzo[b]thiophene-2-carboxamide] | 0.004 | 0.008 | 0.014 | 0.002
CC(C)(c1cc(F)cc(NC(=O)c2cc3cc(NS(C)(=O)=O)ccc3s2)c1)c1cc(OC(F)(F)F)cc(OC(F)(F)C(F)F)c1 [Example 85, N-(3-fluoro-5-(2-(3-(1,1,2,2-tetrafluoroethoxy)-5-(trifluoromethoxy)phenyl)propan-2-yl)phenyl)-5-(methylsulfonamido)benzo[b]thiophene-2-carboxamide] | 0.016 | 0.025 | 0.076 | 0.007
CC(C)(c1cc(F)cc(NC(=O)c2cc3cc(NS(C)(=O)=O)ncc3s2)c1)c1cc(OC(F)(F)F)cc(OC(F)(F)C(F)F)c1 [Example 86, N-(3-fluoro-5-(2-(3-(1,1,2,2-tetrafluoroethoxy)-5-(trifluoromethoxy)phenyl)propan-2-yl)phenyl)-5-(methylsulfonamido)thieno[2,3-c]pyridine-2-carboxamide] | 0.072 | 0.075 | 0.23 | 0.047
CC(C)(c1cc(Br)cc(NC(=O)c2cc3cc(NS(C)(=O)=O)ccc3s2)c1)c1cc(OC(F)(F)F)cc(OC(F)(F)C(F)F)c1 [Example 87, N-(3-bromo-5-(2-(3-(1,1,2,2-tetrafluoroethoxy)-5-(trifluoromethoxy)phenyl)propan-2-yl)phenyl)-5-(methylsulfonamido)benzo[b]thiophene-2-carboxamide] | 0.016 | 0.028 | 0.091 | 0.009
CC(C)(c1cc(Cl)cc(NC(=O)c2cc3cc(NS(C)(=O)=O)ccc3s2)c1)c1cc(OCC(F)(F)F)cc(OC(F)(F)F)c1 [Example 88, N-(3-chloro-5-(2-(3-(2,2,2-trifluoroethoxy)-5-(trifluoromethoxy)phenyl)propan-2-yl)phenyl)-5-(methylsulfonamido)benzo[b]thiophene-2-carboxamide] | 0.015 | 0.024 | 0.087 | 0.008

Other lines, results leading:

IC50 (STAT3) [µM] | IC50 (LNCaP) [µM] | IC50 (HEL92.1.7) [µM] | IC50 (DU-145) [µM] | SMILES
0.047 | 0.07 | 0.22 | 0.048 | CC(C)(c1cc(Br)cc(NC(=O)c2cc3cc(NS(C)(=O)=O)ncc3s2)c1)c1cc(OC(F)(F)F)cc(OC(F)(F)C(F)F)c1 [Example 89, N-(3-bromo-5-(2-(3-(1,1,2,2-tetrafluoroethoxy)-5-(trifluoromethoxy)phenyl)propan-2-yl)phenyl)-5-(methylsulfonamido)thieno[2,3-c]pyridine-2-carboxamide]
0.043 | 0.22 | 0.23 | 0.048 | CC(C)(c1cc(Cl)cc(NC(=O)c2cc3cc(NS(C)(=O)=O)ccc3s2)c1)c1cc(OCCN2CCOCC2)cc(OC(F)(F)F)c1 [Example 90, N-(3-chloro-5-(2-(3-(2-morpholinoethoxy)-5-(trifluoromethoxy)phenyl)propan-2-yl)phenyl)-5-(methylsulfonamido)benzo[b]thiophene-2-carboxamide]
0.032 | 0.056 | 0.078 | 0.012 | CC(C)Oc1cc(Br)cc(C(C)(C)c2cc(Cl)cc(NC(=O)c3cc4cc(NS(C)(=O)=O)ccc4s3)c2)c1 [Example 91, N-(3-(2-(3-bromo-5-isopropoxyphenyl)propan-2-yl)-5-chlorophenyl)-5-(methylsulfonamido)benzo[b]thiophene-2-carboxamide]
0.067 | 0.071 | 0.1 | 0.017 | CC(C)Oc1cc(Cl)cc(C(C)(C)c2cc(Cl)cc(NC(=O)c3cc4cc(NS(C)(=O)=O)ccc4s3)c2)c1 [Example 92, N-(3-chloro-5-(2-(3-chloro-5-isopropoxyphenyl)propan-2-yl)phenyl)-5-(methylsulfonamido)benzo[b]thiophene-2-carboxamide]
0.091 | 0.055 | 0.12 | 0.021 | CC(C)Oc1cc(OC(F)(F)F)cc(C(C)(C)c2cc(Cl)cc(NC(=O)c3cc4c(F)c(NS(C)(=O)=O)ccc4s3)c2)c1 [Example 93, N-(3-chloro-5-(2-(3-isopropoxy-5-(trifluoromethoxy)phenyl)propan-2-yl)phenyl)-4-fluoro-5-(methylsulfonamido)benzo[b]thiophene-2-carboxamide]
1.12 | 0.27 | 0.35 | 0.2 | CN(C)CCOc1cc(OC(F)(F)F)cc(C(C)(C)c2cc(Cl)cc(NC(=O)c3cc4cc(NS(C)(=O)=O)ccc4s3)c2)c1 [Example 94, N-(3-chloro-5-(2-(3-(2-(dimethylamino)ethoxy)-5-(trifluoromethoxy)phenyl)propan-2-yl)phenyl)-5-(methylsulfonamido)benzo[b]thiophene-2-carboxamide]
